Results published in article PMC12683522 (Frontiers in Pharmacology, 2025).

Key:
[1] = Single-dose pharmacokinetics of palbociclib tablets under fasting conditions with rabeprazole pre-treatment; type: in vivo, healthy Chinese subjects; settings: sampling to 96 h after administration
Method: This was a single-center, randomized, open-label, single-dose, two-period crossover bioequivalence study conducted under fasting conditions with rabeprazole pre-treatment. It was carried out at the Phase I Clinical Research Center of Hebei General Hospital in Shijiazhuang, Hebei Province, China, from 12 September 2023, to 27 October 2023. […] Water intake was prohibited from 1 h before to 1 h after each dose (except for breakfast and water used for medication administration). On Day 1, under fasted conditions (at least 10 h), subjects received their seventh dose of rabeprazole and maintained fasting for an additional 4 h. […]
Tmax, t1/2z, elimination rate constant (λz) and percentage of extrapolated residual area (AUC_%Extrap) were the secondary endpoints. […] Cmax and Tmax were determined directly from the observed plasma concentration-time profiles. AUC0-t was calculated using the linear/log trapezoidal method. AUC0‐∞ was determined by formula: AUC0‐∞ = AUC0-t + Ct/λz, where Ct was the last measurable concentration. The slope of the terminal segment of the semi-logarithmic drug-time curve calculated by linear regression is used to obtain λz. t1/2z was calculated as ln2/λz. AUC_%Extrap was determined by formula: AUC_%Extrap = [( AUC0‐∞ - AUC0-t)/ AUC0‐∞ ]×100%. For pharmacokinetic parameters that cannot be calculated due to inapplicable data, they are marked with “-” in the dataset.

[2] = Bioequivalence analysis of test vs reference palbociclib tablets (GLSM ratio, 90% CI); type: in vivo, healthy Chinese subjects; settings: fasting, rabeprazole pre-treatment
Method: After log-transforming Cmax, AUC0−t, and AUC0‐∞ , analysis of variance (using the PROC MIXED method) was performed via a mixed linear effects model, with formulation, period, and sequence treated as fixed effects and subject nested within sequence as a random effect. Throughout the analyses, missing data were, in principle, not imputed. Bioequivalence was assessed using the two one-sided t-tests, and the 90% confidence interval (CI) for the ratio of the geometric least squares means of the two formulations was calculated. If the CI fell entirely within the range of 80.00%–125.00%, the formulations were deemed bioequivalent. Tmax was evaluated using the non-parametric Wilcoxon signed-rank test, and statistical significance was considered when P < 0.05. Pharmacokinetic parameters were calculated using Phoenix WinNonlin (version 8.3), while the remaining statistical analyses and data processing were performed by SAS software (version 9.4). Continuous variables were presented with descriptive statistics, and categorical data were expressed as frequencies and percentages.

[3] = Safety assessment (adverse events, CTCAE v5.0); type: in vivo, healthy Chinese subjects
Method: Safety assessments included AEs, SAEs, concomitant medications, laboratory tests, clinical symptoms, vital sign measurements, 12-lead ECG and physical examination results. […] Laboratory tests, physical examinations, and 12-lead ECG were performed at screening and during the follow-up period. All AEs were monitored throughout the study by the research doctors and spontaneously reported by the subjects. AEs were coded using MedDRA (Medical Dictionary for Regulatory Activities: Version 26.1) and summarized according to System Organ Class (SOC) and Preferred Term (PT), including the number and percentage of subjects experiencing AEs and the frequency of AEs. The severity of AEs was graded according to the Common Terminology Criteria for Adverse Events (CTCAE, Version 5.0) issued by the U.S. National Cancer Institute. Missing safety data were labeled as “Missing” in the datasets and were not imputed in the subsequent analyses.

[4] = parameters: method as in Eser et al., 2022; settings: intragastric pH above 4.5; ref Eser et al., 2022; cited from earlier work

CC(=O)c1c(C)c2cnc(Nc3ccc(N4CCNCC4)cn3)nc2n(C2CCCC2)c1=O [palbociclib]
share of AUC0‐∞ covered by AUC0-t [1]: 93% | Intra-subject CV of AUC0-t [2]: 6.14% | Intra-subject CV of AUC0‐∞ [2]: 5.83% | Intra-subject CV of Cmax [2]: 9.65% | severity of AEs ([3]; CTCAE v5.0): mild and reported as grade 1 | adverse events confirmed as adverse reactions ([3]; of 28 adverse events in 17 subjects): 4 | Sum of treatment-emergent AEs, AE count ([3]; safety analysis set): 28 | incidence of AEs ([3]; safety analysis set): 51.5% | serious adverse events (SAEs) ([3]; safety analysis set): No SAEs occurred | solubility [4]: < 500 µg/mL
